Test results published in patent publication US20240299377A1, “METHODS AND COMPOSITIONS FOR TREATING IRON DISORDERS” (BeyondSpring Pharmaceuticals, Inc., priority 2019, published 2024).

Test system: plasma haptoglobin levels
Test: Plasma haptoglobin levels in non-metastatic breast cancer patients receiving TAC plus plinabulin (hematology safety assessments)
Assay type: in vivo, human
Text: Method. Non-metastatic Breast Cancer patients receiving TAC (taxotere, doxorubicin, cyclophosphamide) also received plinabulin at a dose of 10 (n=15), 20 (n=15) or 30 (n=12) mg/m^2. Hematology safety assessments were done at predose, and post-dose plinabulin at Day 2, 3, 6, 7, 8, 9, 10, 11, 12, 13 and 15, as predefined prospectively per protocol. Plinabulin was given on Day 1 as a single dose per 21-day cycle.

Compound: CC(C)(C)c1[nH]cnc1/C=c1\[nH]c(=O)/c(=C/c2ccccc2)[nH]c1=O [Plinabulin, (3Z,6Z)-3-Benzylidene-6-{[5-(2-methyl-2-propanyl)-1H-imidazol-4-yl]methylene}-2,5-piperazinedione]
- dose comparison for increasing plasma haptoglobin levels (30 mg/m^2 vs lower doses (10, 20 mg/m^2), p<0.01): most effective dose
- mean (SD) increase of maximum haptoglobin levels from baseline (Plinabulin 30 mg/m^2 single dose on Day 1 of 21-day cycle with TAC, baseline mean (SD) 1.32 (0.453) g/L, p<0.0005): 1.61 (1.29) g/L
- fold increase of maximum haptoglobin levels (Plinabulin 30 mg/m^2 single dose, versus baseline): more than 2 fold
- duration of haptoglobin increase (single dose 30 mg/m^2, FIG. 1): > 3 weeks
- time to haptoglobin (Hp) increase after plinabulin dosing (single dose 30 mg/m^2, P<0.03): ≤ 2 days
